Reference: PMC6752721 (Chembiochem : a European journal of chemical biology, 2019)
Where a SMILES comes first, the peptide text is derived from it. [ ]: non-standard residue; d: D form. The star is where a group is joined. Decanoyl = CCCCCCCCCC(=O)*; Orn = NCCC[C@H](N)C(=O)O; Dap = NC[C@H](N)C(=O)O; NHDecyl = CCCCCCCCCCN*

Key:
HeLa cells [1] = assay: Cytosolic entry efficiency of naphthofluorescein; format: cell-based; conditions: 10% FBS, flow cytometry; for fold decrease in CPP activity (cellular entry efficiency) relative to peptide 4 / fold increase in CPP activity (cellular entry efficiency) relative to peptide 4: 5 μM NF-labeled peptide, 2 h
HeLa cells [2] = assay: MTT cytotoxicity assay; format: cell-based

CCCCCCCCCC(=O)NC[C@@H]1NC(=O)[C@H](CCC(N)=O)NC(=O)[C@@H](CCCNC(=N)N)NC(=O)[C@H](CCCNC(=N)N)NC(=O)[C@@H](CCCNC(=N)N)NC(=O)[C@H](CCCNC(=N)N)NC1=O [compound 9] (cyclo([Dap](Decanoyl)R[dR]R[dR]Q))
fold decrease in CPP activity (cellular entry efficiency) relative to peptide 4 (HeLa cells [1]): ~ 3 fold

CCCCCCCCCC(=O)NC[C@@H]1NC(=O)[C@H](CCC(N)=O)NC(=O)[C@H](CCCNC(=N)N)NC(=O)[C@@H](CCCNC(=N)N)NC(=O)[C@H](CCCNC(=N)N)NC(=O)[C@@H](CCCNC(=N)N)NC1=O [compound 10] (cyclo([Dap](Decanoyl)[dR]R[dR]RQ))
fold decrease in CPP activity (cellular entry efficiency) relative to peptide 4 (HeLa cells [1]): ~ 3 fold

CCCCCCCCCC(=O)NC[C@@H]1NC(=O)[C@H](CCC(N)=O)NC(=O)[C@H](CCCNC(=N)N)NC(=O)[C@H](CCCNC(=N)N)NC(=O)[C@H](CCCNC(=N)N)NC(=O)[C@H](C)NC1=O [compound 12] (cyclo(ARRRQ[Dap](Decanoyl)))
fold decrease in CPP activity (cellular entry efficiency) relative to peptide 4 (HeLa cells [1]): ~ 2 fold

CCCCCCCCCC(=O)NCCC[C@@H]1NC(=O)[C@H](CCC(N)=O)NC(=O)[C@H](CCCNC(=N)N)NC(=O)[C@H](CCCNC(=N)N)NC(=O)[C@H](CCCNC(=N)N)NC(=O)[C@H](CCCNC(=N)N)NC1=O [compound 15] (cyclo([Orn](Decanoyl)RRRRQ))
fold increase in CPP activity (cellular entry efficiency) relative to peptide 4 (HeLa cells [1]): 2 fold

CCCCCCCCCC(=O)NC[C@@H]1NC(=O)[C@H](CCC(N)=O)NC(=O)[C@H](CCCNC(=N)N)NC(=O)[C@H](CCCNC(=N)N)NC(=O)[C@H](CCCNC(=N)N)NC(=O)[C@H](CCCNC(=N)N)NC(=O)[C@H](CCCNC(=N)N)NC1=O [peptide 14]
fold decrease in CPP activity (cellular entry efficiency) relative to peptide 4 (HeLa cells [1]): ~5 fold

CCCCCCCCCC(=O)NCCCC[C@@H]1NC(=O)[C@H](CCC(N)=O)NC(=O)[C@H](CCCNC(=N)N)NC(=O)[C@H](CCCNC(=N)N)NC(=O)[C@H](CCCNC(=N)N)NC(=O)[C@H](CCCNC(=N)N)NC1=O [peptide 16] (cyclo(K(Decanoyl)RRRRQ))
fold increase in CPP activity (cellular entry efficiency) relative to peptide 4 (HeLa cells [1]): 1.3 fold

CCCCCCCCCCNC(=O)C[C@@H]1NC(=O)[C@H](CCC(N)=O)NC(=O)[C@H](CCCNC(=N)N)NC(=O)[C@H](CCCNC(=N)N)NC(=O)[C@H](CCCNC(=N)N)NC(=O)[C@H](CCCNC(=N)N)NC1=O [peptide 17] (cyclo(D(NHDecyl)RRRRQ))
fold increase in CPP activity (cellular entry efficiency) relative to peptide 4 (HeLa cells [1]): ~ 5 fold | fold more active than CPP12 (cellular entry efficiency) (HeLa cells [1]): 2.8 fold | reduction of cell viability (HeLa cells [2]; ≤25 μM peptide, not concentration-dependent): ~ 30% | effect on cell viability at higher concentrations (HeLa cells [2]; ≥50 μM peptide): significant loss of HeLa cell viability
